In patent publication US10519179B2, “Highly efficient NRF2 activators-co-releasing molecule hybrids, their use in the treatment of inflammatory or cardiovascular diseases and their process of preparation” (Centre National de la Recherche Scientifique, priority 2015, dated 2019):
Entries after “also recorded” stand apart in the source; their conditions may differ. Where a name gives a salt, the structure may show the parent alone.

Tests used:
HO-1 [1] = test: HO-1 protein expression in human THP-1 cells; assay type: cell-based
Procedure: (§1) Human monocytes (THP-1 cells) were cultured in RPMI 1640-Glutamax medium supplemented with 1% penicillin/streptomycin, 1% sodium pyruvate and 10% fetal bovine serum (RPMIc). Cells at confluence were washed with PBS and treated with compound C at different concentrations for 6 h according to the experimental protocol. Compound C was dissolved in DMSO at 0.1% as a final concentration in complete medium.

IL-1β = IL-1β production in LPS-treated human THP-1 cells (ELISA); assay type: cell-based; details: 5 μM, 24 h
Procedure: IL-1β production was measured in the supernatants of human THP-1 cells treated with LPS (100 μg/ml) in the presence or absence of 5 μM comp. C, DMF or CORM-401. After 24 h incubation, the medium was collected and IL-1β levels quantified using an ELISA kit (R&D Systems) following the manufacturer's instructions.

BV2 microglia cells = test: reduced glutathione (GSH), DTNB colorimetric assay in BV2 microglia; assay type: cell-based, mouse; details: 10 μM
Procedure: The 5,5′ dithiobis-(2-nitrobenzoic acid) (DTNB) colorimetric assay was used for the measurement of reduced glutathione (GSH). Briefly, BV2 microglia cells were seeded in 6-well-plates and incubated with 10 μM hybrids and dimethyl fumarate (DMF, positive control) for 3, 6 and 24 h. At the end of the incubation period, cells were initially washed with phosphate buffers solution, then scraped in 600 μL of 2% (w/v) 5-sulposalicylic acid solution and transferred to a 1.5 ml microtube, and finally centrifuged for 5 min at 10,000×g. An aliquot of the supernatant (500 μl) was then reacted with 0.5 ml DTNB solution (0.3 M sodium phosphate buffer, 10 mM EDTA and 0.2 mM DTNB) and after 5 min the absorbance was read spectrophotometrically at 412 nm (extinction coefficient 14.3 mM^−1 cm^−1).

[2] = CO release in COP-1 fluorescence assay in buffer; assay type: physicochemical; details: in vitro conditions described in the examples, not specified further
Procedure: The release of CO from hybrids was assessed using COP-1, a fluorescent probe sensitive to CO. The fluorescence intensity of COP-1 (2 μM, Δex=475 nm) in buffer was measured in a cuvette to obtain a background fluorescence spectrum and spectra were then recorded immediately after addition of 50 μM tested compounds. The mean fluorescence intensity (MFI) of 3 independent reading was calculated using the fluorescence intensity values recorded at 507 nm after 60 min.

human THP-1 cells [3] = test: CO delivery to human THP-1 cells loaded with COP-1; assay type: cell-based; details: 10 μM, 15 min at 37° C.
Procedure: To detect whether the compounds delivered CO to cells, human THP-1 cells were initially suspended in Dulbecco Phosphate Buffer Solution (+Ca, +Mg; Gibco® Cell Culture, Life Technologies) and then treated with compounds at a concentration of 10 μM for 15 min at 37° C. in 5 ml polypropylene round-bottom tubes (BD Falcon, Dominique Dutscher). Cells were then incubated for 30 min with 1 μM COP-1. Intracellular fluorescence of COP-1 was measured using a CyAnTM ADP LX7 Analyzer (Beckman Coulter) as previously reported.

Nrf2 [4] = test: nuclear expression of Nrf2 in BV2 microglia (Western blot); assay type: cell-based, mouse; details: cells and concentration not given
Procedure: (§2) Cells were grown in an atmosphere of 5% CO2 at 37° C. in either 75 cm^2 flasks, 100 mm diameter Petri dishes, 6- or 24-well plates containing medium supplemented with 10% fetal bovine serum (Lonza) and penicillin (100 U·mL^−1)/streptomycin ([…]; Life Technologies). BV2 mouse microglial cells were grown in RPMI-1640 containing 2 g·L^−1 glucose and supplemented with 0.3 g·L^−1 1-glutamine.
BV2 microglia were incubated with 10 μM of hybrids for 2 h to assess nuclear translocation of Nrf2. Nuclear fractions were isolated using a Nuclear Extract Kit from Active Motif (La Hulpe, Belgium), according to the manufacturer's instructions, and stored at −80° C. Protein concentrations were measured using a Pierce BCA Protein Assay kit (Thermo Scientific).
(§3) Whole cell lysates (20 μg protein/sample) were resolved on 12% acrylamide gels, respectively, and proteins transferred to polyvinylidene difluroride membranes (Millipore, Brussels, Belgium). […] Bands were detected with chemiluminescent substrates (Pierce ECL®, Thermo Scientific or RevelBIOt® Intense, Ozyme) and images captured using a G:Box F3 Imagery Station and GeneSys Software (Syngene, Cambridge, UK). […]

HO-1 [5] = test: HO-1 protein expression in BV2 microglia (Western blot); assay type: cell-based, mouse; details: cells and concentration not given
Procedure: as §2
To determine HO-1 protein expression, BV2 microglia were incubated with 10 μM hybrids (compounds) for 6 h. […] Protein concentrations were measured using a Pierce BCA Protein Assay kit (Thermo Scientific).
as §3

HO-1 [6] = test: HO-1 protein expression in H9c2 cardiomyocytes; assay type: cell-based, rat; details: 1 μM to 10 μM, 6 h or 24 h, 20% or 5% O2
Procedure: The assessment of HO-1 induction by western blotting was performed as previously (Example 4.1). H9C2 cells rat cardiomyocytes were cultured in Dubelcco's Modified Eagle Medium containing: glucose 4.5 g/l, L-glutamine 2 mM, pyruvate) supplemented with fetal bovine serum (FBS) 10%, a mixture of penicillin (10,000 IU/ml)/streptomycin (10 mg/ml) (Gibco Life Technologies) and sodium Pyruvate 1% (Gibco Life Technologies). Cells were grown and subcutlured either in a normal incubator at 20% O2 or in a dedicated chamber in which the O2 levels was kept constantly at 5%, a value which reflects more closely the O2 concentrations found in vivo. For the adaptation of cells at 5 O2, cells were grown and passaged at least twice before conducting any experiment.
H9c2 cardiomyocytes were then incubated with increasing concentration of compound C (1 μM to 10 μM) for 6 h or 24 h either at 20% or 5% O2.

Nrf2 [7] = test: Nrf2 expression in human THP-1 cells; assay type: cell-based
Procedure: as §1

human THP-1 cells [8] = test: cytotoxicity (LDH assay) in THP-1 cells; assay type: cell-based; details: 24 h, increasing concentrations, up to 10 μM
Procedure: (§4) Cytotoxicity was evaluated in THP-1 cells and H9c2 cardiomyocytes 24 h after incubation with increasing concentrations of compound C.
as §1, with “concentrations and” for “concentrations”, “different periods of time” for “6 h”
(§5) Cell viability was assessed using the previously described LDH assay.

H9c2 cardiomyocytes = test: cytotoxicity (LDH assay) in H9c2 cardiomyocytes; assay type: cell-based, rat; details: 24 h, 20% or 5% oxygen, concentrations used
Procedure: as §4
H9c2 cardiomyocytes were cultured as previously (Example 4.2).
as §5

[9] = blood HbCO levels in mice after oral gavage; assay type: in vivo; details: oral gavage, 1, 3 and 6 hours after administration
Procedure: Male C57 BL/6J mice were used for all experiments (Janvier Labs, France). Animals received at 8 weeks of age were placed on a standard diet and allowed to acclimatize for 2 weeks on a 12 hr light/dark cycle. All experiments were performed in compliance with INSERM guidelines for the use of animals and approved by the institutional review board at Paris-Est Creteil Val de Marne University. Mice were administered by oral gavage with a single dose of the following: 1) 200 μl of sesame oil (vehicle, control group); 2) Compound A (3 mg in 200 μl sesame oil); 3) Compound B (3 mg in 200 μl sesame oil).
Mice were sacrificed 6 hr after treatment by cervical dislocation. Livers, lungs, hearts and brains were excised and snap frozen for western blot analysis. Tissue samples were homogenized in lysis buffer (150 mM sodium chloride, 1.0% Triton X-100, 0.5% sodium deoxycholate 0.1% sodium dodecyl sulphate, 50 mM Tris, pH 8.0). Lysates were centrifuged for 20 min at 15,000 g at 4° C. and supernatants were collected and stored at −80° C. for further analysis. […] The release of CO from compounds of the invention was assessed spectrophotometrically by measuring the conversion of deoxyhemoglobin to carbonmonoxy hemoglobin (HbCO). […] The percent of HbCO was then calculated based on the absorbances at 420 and 432 nm with the reported extinction coefficients for mouse blood. […]

HO-1 [10] = test: cardiac HO-1 mRNA expression in mice after oral gavage; assay type: in vivo; details: 40 mg/kg oral gavage, 6 h
Procedure: (§6) FIG. 11 represents blood HbCO levels in vivo after compound C were administered to mice by oral gavage (FIG. 11A); mRNA expression of Nrf2 dependent genes (HO-1 and NQO-1) in the heart of mice after HbCO after administration of compound C (40 mg/kg) by oral gavage (FIG. 11B).

NQO1 = test: cardiac NQO1 mRNA expression in mice after oral gavage; assay type: in vivo; details: 40 mg/kg oral gavage, 24 h
Procedure: as §6

[11] = THP-1 cells, 6 h, different concentrations
[12] = identical concentrations (5 μM)

Row | Structure (SMILES) | concentration from which an increase in HO-1 protein expression starts (HO-1 [1]; THP-1 cells, 6 h) | IL-1β production (IL-1β) | intracellular reduced glutathione (GSH) (BV2 microglia cells; 3 or 6 h) | intracellular reduced glutathione (GSH) (BV2 microglia cells; 24 h) | CO release (summary statement) [2] | CO release in cells (intracellular COP-1 fluorescence) (human THP-1 cells [3]) | nuclear expression of Nrf2 (summary statement) (Nrf2 [4]) | HO-1 protein expression (summary statement) (HO-1 [5]) | HO-1 protein expression (HO-1 [6]) | activation of Nrf2 (Nrf2 [7]; [11]) | Nrf2 activation compared with CORM-401 and DMF (Nrf2 [7]; [12]) | HO-1 protein expression (HO-1 [1]; [11]) | HO-1 activation compared with CORM-401 and DMF (HO-1 [1]; [12]) | toxicity toward human THP-1 cells (human THP-1 cells [8]) | toxic effect toward H9c2 cardiomyocytes (H9c2 cardiomyocytes) | HbCO levels [9] | cardiac HO-1 mRNA expression (HO-1 [10]) | cardiac NQO1 mRNA expression (NQO1)
1 | CN(CC(=O)O)C(=S)[S-].[C-]#[O+].[C-]#[O+].[C-]#[O+].[C-]#[O+].[Mn] [CORM-401, reference compound] | 10 fold this concentration is not sufficient | no effect | – | – | – | – | – | – | – | – | – | – | – | – | – | – | – | –
2 | COC(=O)/C=C/C(=O)OC [DMF, dimethyl fumarate] | 10 fold this concentration is not sufficient | no effect | raised the level of GSH from 6 h of treatment | significant raise | – | – | – | – | – | – | – | – | – | – | – | – | – | –
3 | COc1ccc(/C=C/C(=O)OCCN(C)C2=[S][Mn][S]2)cc1OC.[C-]#[O+].[C-]#[O+].[C-]#[O+].[C-]#[O+] [Compound C] | 1 µM | decreased IL-1β production | – | – | significant amount of CO | significant and high amount of CO | two fold increase | two fold increase | induced an increase in HO-1 protein expression; also recorded: significant expression of HO-1 | strongly promoted the activation of Nrf2 | more potent than DMF and comparative compound CORM-401 | induction of HO-1 protein expression; also recorded: concentration-dependent increase in HO-1 protein expression | more potent than DMF and comparative compound CORM-401 | do not show significant toxicity | does not cause any visible toxic effect | promotes an increase in HbCO levels | promotes an increase | promotes an increase
